Source: PMC5540273, “Progress towards a public chemogenomic set for protein kinases and a call for contributions” (PLoS ONE, 2017)

Key:
Experiment in all cases: KINOMEscan competition binding
ERK3 = ERK3 (Homo sapiens, UniProt Q16659); settings: read-out: %Inh ERK3
AURKC = molecular target: T1, AURKC (Homo sapiens, UniProt Q9UQB9); settings: read-out: %Inh AURKC
T1 sequence (Q9UQB9 1-309): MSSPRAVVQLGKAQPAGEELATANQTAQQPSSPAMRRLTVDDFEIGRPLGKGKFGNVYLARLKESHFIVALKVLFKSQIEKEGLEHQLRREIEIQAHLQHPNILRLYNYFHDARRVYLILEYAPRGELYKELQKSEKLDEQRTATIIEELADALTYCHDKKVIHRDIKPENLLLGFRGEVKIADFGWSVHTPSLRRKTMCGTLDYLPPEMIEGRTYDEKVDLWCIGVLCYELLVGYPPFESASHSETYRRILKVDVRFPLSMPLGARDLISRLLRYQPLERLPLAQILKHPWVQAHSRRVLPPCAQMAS

FGFR4 = FGFR4 (Homo sapiens, UniProt P22455); settings: read-out: %Inh FGFR4
EPHB3 = molecular target: T2, EPHB3 (Homo sapiens, UniProt P54753); settings: read-out: %Inh EPHB3
T2 sequence (P54753 34-998): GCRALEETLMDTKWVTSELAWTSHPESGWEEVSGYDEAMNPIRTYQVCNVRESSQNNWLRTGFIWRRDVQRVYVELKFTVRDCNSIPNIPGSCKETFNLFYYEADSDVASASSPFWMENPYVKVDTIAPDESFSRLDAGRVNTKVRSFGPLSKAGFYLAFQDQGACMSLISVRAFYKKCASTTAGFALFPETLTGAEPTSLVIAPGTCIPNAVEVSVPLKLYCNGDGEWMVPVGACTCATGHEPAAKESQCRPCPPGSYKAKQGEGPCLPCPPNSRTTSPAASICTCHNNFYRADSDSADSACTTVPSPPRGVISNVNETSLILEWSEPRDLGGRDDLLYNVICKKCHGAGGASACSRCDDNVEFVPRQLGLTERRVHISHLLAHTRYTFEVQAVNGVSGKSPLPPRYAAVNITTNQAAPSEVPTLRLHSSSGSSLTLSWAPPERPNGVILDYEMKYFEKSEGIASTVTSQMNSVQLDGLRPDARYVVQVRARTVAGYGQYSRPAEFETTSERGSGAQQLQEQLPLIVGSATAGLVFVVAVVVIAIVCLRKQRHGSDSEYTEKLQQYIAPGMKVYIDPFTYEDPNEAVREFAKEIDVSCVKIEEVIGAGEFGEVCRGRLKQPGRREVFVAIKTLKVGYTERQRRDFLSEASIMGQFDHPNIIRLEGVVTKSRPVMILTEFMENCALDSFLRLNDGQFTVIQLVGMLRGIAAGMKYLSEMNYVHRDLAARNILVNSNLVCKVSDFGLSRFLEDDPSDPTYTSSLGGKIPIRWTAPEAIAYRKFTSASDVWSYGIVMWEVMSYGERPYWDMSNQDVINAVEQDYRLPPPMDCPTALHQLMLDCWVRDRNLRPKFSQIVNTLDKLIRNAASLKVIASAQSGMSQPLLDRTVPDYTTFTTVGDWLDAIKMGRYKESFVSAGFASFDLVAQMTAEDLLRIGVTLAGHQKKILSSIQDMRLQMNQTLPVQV

FGFR1 = FGFR1 (Homo sapiens, UniProt P11362); settings: read-out: %Inh FGFR1
GRK3 = molecular target: T3, GRK3 (Homo sapiens, UniProt P35626); settings: read-out: %Inh GRK3
T3 sequence (P35626 1-688): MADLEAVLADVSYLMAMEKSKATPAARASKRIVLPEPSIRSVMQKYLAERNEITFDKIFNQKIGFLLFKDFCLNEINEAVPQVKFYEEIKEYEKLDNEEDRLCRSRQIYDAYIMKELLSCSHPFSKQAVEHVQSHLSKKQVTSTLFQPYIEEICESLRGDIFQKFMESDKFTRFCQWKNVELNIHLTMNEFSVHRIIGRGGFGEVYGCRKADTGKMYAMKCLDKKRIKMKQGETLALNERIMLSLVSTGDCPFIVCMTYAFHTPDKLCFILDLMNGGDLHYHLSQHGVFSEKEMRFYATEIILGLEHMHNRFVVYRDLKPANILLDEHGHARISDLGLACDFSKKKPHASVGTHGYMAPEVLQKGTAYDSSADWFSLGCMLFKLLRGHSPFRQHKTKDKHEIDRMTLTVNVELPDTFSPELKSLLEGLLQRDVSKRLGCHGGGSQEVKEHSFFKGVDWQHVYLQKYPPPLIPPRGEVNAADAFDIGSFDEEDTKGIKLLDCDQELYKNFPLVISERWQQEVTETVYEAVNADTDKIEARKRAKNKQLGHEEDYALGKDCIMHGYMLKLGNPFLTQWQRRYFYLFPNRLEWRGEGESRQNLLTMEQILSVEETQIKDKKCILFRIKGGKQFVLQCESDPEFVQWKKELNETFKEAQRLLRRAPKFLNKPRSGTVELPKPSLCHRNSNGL

FGR = FGR (Homo sapiens, UniProt P09769); settings: read-out: %Inh FGR
Sequence of FGR (P09769 whole entry): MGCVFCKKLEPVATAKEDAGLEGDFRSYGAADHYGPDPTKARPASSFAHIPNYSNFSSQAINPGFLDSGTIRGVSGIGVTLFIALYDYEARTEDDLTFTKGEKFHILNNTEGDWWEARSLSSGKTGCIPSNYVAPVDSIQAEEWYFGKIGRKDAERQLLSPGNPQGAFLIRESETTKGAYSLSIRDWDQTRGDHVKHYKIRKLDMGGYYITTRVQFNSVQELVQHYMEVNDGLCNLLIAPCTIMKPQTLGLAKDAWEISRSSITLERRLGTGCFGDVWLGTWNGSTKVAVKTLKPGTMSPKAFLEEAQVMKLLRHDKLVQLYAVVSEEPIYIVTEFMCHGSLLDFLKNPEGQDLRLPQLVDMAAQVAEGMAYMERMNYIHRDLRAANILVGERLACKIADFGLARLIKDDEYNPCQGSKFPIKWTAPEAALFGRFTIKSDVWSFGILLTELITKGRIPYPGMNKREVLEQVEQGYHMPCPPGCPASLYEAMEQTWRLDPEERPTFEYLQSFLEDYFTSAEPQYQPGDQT

Sequence of FGFR1 (P11362 22-822): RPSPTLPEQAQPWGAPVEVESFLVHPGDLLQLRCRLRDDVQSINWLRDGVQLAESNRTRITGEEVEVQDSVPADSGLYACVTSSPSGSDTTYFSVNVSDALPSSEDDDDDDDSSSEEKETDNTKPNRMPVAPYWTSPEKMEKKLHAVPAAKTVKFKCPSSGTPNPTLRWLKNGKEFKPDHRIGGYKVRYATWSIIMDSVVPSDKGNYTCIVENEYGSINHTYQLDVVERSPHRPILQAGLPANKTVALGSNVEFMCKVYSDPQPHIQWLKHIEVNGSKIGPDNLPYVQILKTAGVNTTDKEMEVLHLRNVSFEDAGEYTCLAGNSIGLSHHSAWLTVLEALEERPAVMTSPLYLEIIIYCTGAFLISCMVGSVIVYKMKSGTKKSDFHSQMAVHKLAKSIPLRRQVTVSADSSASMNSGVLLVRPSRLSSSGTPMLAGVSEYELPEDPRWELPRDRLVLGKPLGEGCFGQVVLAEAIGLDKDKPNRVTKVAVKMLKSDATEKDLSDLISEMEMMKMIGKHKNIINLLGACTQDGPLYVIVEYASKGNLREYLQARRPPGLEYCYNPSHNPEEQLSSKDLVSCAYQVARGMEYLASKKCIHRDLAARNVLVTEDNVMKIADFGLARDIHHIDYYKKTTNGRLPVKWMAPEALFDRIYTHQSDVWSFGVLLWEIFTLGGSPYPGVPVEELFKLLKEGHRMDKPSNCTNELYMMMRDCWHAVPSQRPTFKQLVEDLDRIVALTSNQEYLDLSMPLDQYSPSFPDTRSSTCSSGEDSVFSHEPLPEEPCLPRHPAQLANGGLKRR
Sequence of ERK3 (Q16659 whole entry): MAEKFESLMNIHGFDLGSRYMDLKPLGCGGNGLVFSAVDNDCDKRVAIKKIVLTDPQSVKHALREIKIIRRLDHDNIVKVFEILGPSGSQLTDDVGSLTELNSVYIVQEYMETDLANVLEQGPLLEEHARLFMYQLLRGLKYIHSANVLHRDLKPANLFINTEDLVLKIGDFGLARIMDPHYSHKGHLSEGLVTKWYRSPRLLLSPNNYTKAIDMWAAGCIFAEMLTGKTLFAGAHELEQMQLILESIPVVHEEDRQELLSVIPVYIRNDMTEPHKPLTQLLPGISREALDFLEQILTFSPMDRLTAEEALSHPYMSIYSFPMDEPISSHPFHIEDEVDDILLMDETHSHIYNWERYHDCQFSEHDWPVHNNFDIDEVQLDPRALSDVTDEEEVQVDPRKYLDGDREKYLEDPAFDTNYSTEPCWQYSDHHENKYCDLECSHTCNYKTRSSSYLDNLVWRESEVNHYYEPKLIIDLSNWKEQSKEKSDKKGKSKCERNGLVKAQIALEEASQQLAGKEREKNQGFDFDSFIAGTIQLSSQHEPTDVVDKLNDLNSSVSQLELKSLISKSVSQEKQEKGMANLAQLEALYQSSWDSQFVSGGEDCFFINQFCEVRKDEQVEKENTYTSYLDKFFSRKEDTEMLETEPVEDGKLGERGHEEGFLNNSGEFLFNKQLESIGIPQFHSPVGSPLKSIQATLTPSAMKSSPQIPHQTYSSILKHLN
Sequence of FGFR4 (P22455 22-802): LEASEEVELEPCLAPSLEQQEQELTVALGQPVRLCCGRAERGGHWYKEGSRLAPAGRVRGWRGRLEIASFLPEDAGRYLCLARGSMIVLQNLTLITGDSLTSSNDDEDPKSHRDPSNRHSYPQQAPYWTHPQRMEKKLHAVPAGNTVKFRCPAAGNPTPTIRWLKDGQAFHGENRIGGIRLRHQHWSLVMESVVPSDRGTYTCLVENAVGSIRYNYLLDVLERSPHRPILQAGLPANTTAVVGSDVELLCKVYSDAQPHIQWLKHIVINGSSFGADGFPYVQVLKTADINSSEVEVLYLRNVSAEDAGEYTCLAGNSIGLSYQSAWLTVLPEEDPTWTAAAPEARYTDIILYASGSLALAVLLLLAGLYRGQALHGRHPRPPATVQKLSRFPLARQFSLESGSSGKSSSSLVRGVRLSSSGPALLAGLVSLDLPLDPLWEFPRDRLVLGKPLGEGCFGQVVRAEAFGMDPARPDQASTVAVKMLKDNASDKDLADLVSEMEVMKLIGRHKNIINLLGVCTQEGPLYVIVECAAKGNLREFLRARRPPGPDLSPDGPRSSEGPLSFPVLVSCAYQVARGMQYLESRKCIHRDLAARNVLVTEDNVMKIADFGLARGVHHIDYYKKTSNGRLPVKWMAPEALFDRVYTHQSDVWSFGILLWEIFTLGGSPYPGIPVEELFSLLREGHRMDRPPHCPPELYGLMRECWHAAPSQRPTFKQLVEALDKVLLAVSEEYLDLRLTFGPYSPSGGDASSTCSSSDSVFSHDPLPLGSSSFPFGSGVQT

## Cn1cc(-c2cnc(N)c3c(-c4ccc5c(c4)CCN5C(=O)Cc4ccccc4)csc23)cn1 [UNC10225012A]
ERK3
  inhibition at 1 µM: 0%
AURKC
  inhibition at 1 µM: 92.2%
FGFR4
  inhibition at 1 µM: 0%
EPHB3
  inhibition at 1 µM: 4%
FGFR1
  inhibition at 1 µM: 28%
GRK3
  inhibition at 1 µM: 0%
FGR
  inhibition at 1 µM: 75%

## CS(=O)(=O)Cc1ccc(Nc2nccc(-c3c(-c4cccc(NC(=O)C5CCCCC5)c4)nn4ncccc34)n2)cc1 [UNC10225159A]
ERK3
  inhibition at 1 µM: 0%
AURKC
  inhibition at 1 µM: 49%
FGFR4
  inhibition at 1 µM: 6%
EPHB3
  inhibition at 1 µM: 5%
FGFR1
  inhibition at 1 µM: 0%
GRK3
  inhibition at 1 µM: 0%
FGR
  inhibition at 1 µM: 27%

## Cc1ccc(NC(=O)Nc2cccc(C(F)(F)F)c2)cc1 [UNC10225187A]
ERK3
  inhibition at 1 µM: 0%
AURKC
  inhibition at 1 µM: 19%
FGFR4
  inhibition at 1 µM: 0%
EPHB3
  inhibition at 1 µM: 0%
FGFR1
  inhibition at 1 µM: 1%
GRK3
  inhibition at 1 µM: 0%
FGR
  inhibition at 1 µM: 0%

## COc1cccc(OC)c1C(=O)Nc1cccc(-c2nn3ccccc3c2-c2ccnc(Nc3cccc(F)c3)n2)c1 [UNC10225310A]
ERK3
  inhibition at 1 µM: 1%
AURKC
  inhibition at 1 µM: 70%
FGFR4
  inhibition at 1 µM: 0%
EPHB3
  inhibition at 1 µM: 8%
FGFR1
  inhibition at 1 µM: 11%
GRK3
  inhibition at 1 µM: 0%
FGR
  inhibition at 1 µM: 23%

## O=c1cc(N2CCOCC2)nc2n(Cc3cccc(Cl)c3Cl)c(C3CC3)nn12 [UNC10225469A]
ERK3
  inhibition at 1 µM: 0%
AURKC
  inhibition at 1 µM: 0%
FGFR4
  inhibition at 1 µM: 0%
EPHB3
  inhibition at 1 µM: 7%
FGFR1
  inhibition at 1 µM: 0%
GRK3
  inhibition at 1 µM: 0%
FGR
  inhibition at 1 µM: 9%
